Earlier results in patent US10307430B2, “KATP antagonists (glibenglamid) for use for promoting growth and/or treating hyperglycaemia of a premature infant” (ASSISTANCE PUBLIQUE—HOPITAUX DE PARIS, priority 2011, dated 2019).

Tests used:
[1] = system: human fetal β cells; details: human fetal β cells from 14 to 20 week gestational fetus (Weinhaus et al., 2003)
[2] = preterm newborn infants, when used with caution (Mitanchez, 2007; Beardsall and Dunger, 2008)
[3] = intravenous, first week of life, very low birth weight infants (Beardsall et al., 2007)
[4] = early insulin replacement, intravenous (Beardsall et al., 2008)

COC(=O)C1=C(C)NC(C)=C([N+](=O)[O-])C1c1ccccc1C(F)(F)F (stereo not shown) [BAY K8644]
insulin secretion in response to secretagogue [1]: able to secrete insulin

insulin
risk of hypoglycaemia [4]: increased risk of hypoglycaemia
weight loss in the first week of life [4]: reduced weight loss
glucose control (early insulin replacement, intravenous, 194 very-low-birth-weight infants (Beardsall et al., 2008)): improved glucose control
clinical benefit (early insulin therapy, infants with very low birth weight (Beardsall et al., 2008)): no clinical benefit
endogenous glucose production [2]: efficient to reduce endogenous glucose production
IGF-I levels [3]: increases IGF-I levels
blood glucose control [3]: improves blood glucose control

[Cl-].[K+] [KCl]
insulin secretion in response to secretagogue [1]: able to secrete insulin

Cc1cnc(C(=O)NCCc2ccc(S(=O)(=O)NC(=O)NC3CCCCC3)cc2)cn1 [glipizide]
insulin secretion in response to secretagogue [1]: able to secrete insulin
